Experiments:
Dipeptidyl peptidase 2 = Dipeptidyl peptidase 2 (Homo sapiens, UniProt Q9UHL4); experiment: Inhibition of human Dipeptidylpeptidase II (DPP II)
Dipeptidyl peptidase 4 = Dipeptidyl peptidase 4 (Homo sapiens, UniProt P27487); experiment: Inhibition of human Dipeptidylpeptidase IV (DPP IV)
[1] = target: Dipeptidyl peptidase II and dipeptidyl peptidase IV (DPP2 and DPP4) (Homo sapiens) (UniProt P27487+Q9UHL4); experiment: Ratio of IC50 for DPP IV to that of IC50 for DPP II; format: protein assay
[2] = Inhibition of human Dipeptidylpeptidase II (DPP II)

Dipeptidyl peptidase 4, sequence (P27487 whole entry): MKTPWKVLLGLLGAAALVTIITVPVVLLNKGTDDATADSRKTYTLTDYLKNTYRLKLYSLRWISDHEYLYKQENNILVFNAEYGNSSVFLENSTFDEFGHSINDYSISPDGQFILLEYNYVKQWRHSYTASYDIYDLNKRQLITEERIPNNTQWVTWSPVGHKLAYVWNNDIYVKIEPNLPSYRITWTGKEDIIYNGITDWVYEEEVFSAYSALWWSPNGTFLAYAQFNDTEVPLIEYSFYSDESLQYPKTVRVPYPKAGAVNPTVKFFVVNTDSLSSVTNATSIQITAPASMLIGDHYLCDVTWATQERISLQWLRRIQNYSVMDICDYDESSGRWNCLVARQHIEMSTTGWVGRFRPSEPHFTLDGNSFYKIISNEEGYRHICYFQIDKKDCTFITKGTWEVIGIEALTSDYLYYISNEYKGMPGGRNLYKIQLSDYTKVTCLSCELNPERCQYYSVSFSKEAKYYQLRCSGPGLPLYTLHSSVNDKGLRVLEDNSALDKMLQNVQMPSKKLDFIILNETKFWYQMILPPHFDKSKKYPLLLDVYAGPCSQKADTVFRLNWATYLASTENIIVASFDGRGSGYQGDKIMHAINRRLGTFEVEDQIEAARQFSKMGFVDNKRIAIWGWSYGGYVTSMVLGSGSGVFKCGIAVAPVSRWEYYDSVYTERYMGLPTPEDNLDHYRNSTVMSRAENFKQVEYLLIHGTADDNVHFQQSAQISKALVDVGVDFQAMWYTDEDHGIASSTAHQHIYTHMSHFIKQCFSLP

For `N[C@@H](CCNCC1CCCCC1)C(=O)N1CCCCC1`, the IC50 (Dipeptidyl peptidase 2) was 0.0011 µM, the IC50 (Dipeptidyl peptidase 4) was 496 µM and the SI [1] was 450000.
Compound `CC1CCCCN1C(=O)[C@@H](N)CCNCc1ccc(Cl)cc1` (stereo partly drawn) has an IC50 (Dipeptidyl peptidase 2) of 0.0023 µM, an IC50 (Dipeptidyl peptidase 4) of over 500 µM and an SI [1] of over 220000.
`N[C@@H](CCNCc1cccc(Cl)c1)C(=O)N1CCCCC1` showed an IC50 (Dipeptidyl peptidase 2) of 0.00134 µM, an IC50 (Dipeptidyl peptidase 4) of 186 µM and an SI [1] of 140000.
Work on `NCC[C@H](N)C(=O)N1CCCCC1` yielded an IC50 [2] of 0.13 µM, an IC50 (Dipeptidyl peptidase 4) of over 1000 µM and an SI [1] of over 7600.
Work on `COc1ccc(CNCC[C@H](N)C(=O)N2CCCCC2)c(OC)c1` yielded an IC50 (Dipeptidyl peptidase 2) of 0.0027 µM, an IC50 (Dipeptidyl peptidase 4) of over 500 µM and an SI [1] of over 180000.
In the case of `N[C@@H](CCNCc1cccc2ccccc12)C(=O)N1CCCCC1`, the IC50 (Dipeptidyl peptidase 2) is reported as 0.00131 µM, the IC50 (Dipeptidyl peptidase 4) is reported as 301 µM and the SI [1] is reported as 230000.
Compound `N#C[C@@H]1CCCCN1C(=O)[C@@H](N)CCN` has an IC50 (Dipeptidyl peptidase 2) of 0.038 µM, an IC50 (Dipeptidyl peptidase 4) of 151 µM and an SI [1] of 4000.
`N[C@@H](CCNCCCc1ccccc1)C(=O)N1CCCCC1` gave an IC50 (Dipeptidyl peptidase 2) of 0.00191 µM, an IC50 (Dipeptidyl peptidase 4) of over 500 µM and an SI [1] of over 260000.
Work on `N[C@@H](CCNCc1ccncc1)C(=O)N1CCCCC1` yielded an IC50 (Dipeptidyl peptidase 2) of 0.00075 µM, an IC50 (Dipeptidyl peptidase 4) of 125 µM and an SI [1] of 170000.
Compound `N[C@@H](CCNCc1ccc(Cl)cc1)C(=O)N1CCCCC1` has an IC50 (Dipeptidyl peptidase 2) of 0.00048 µM, an IC50 (Dipeptidyl peptidase 4) of 165 µM and an SI [1] of 340000.
For `N=C(N)NCC[C@H](N)C(=O)N1CCCCC1`, the IC50 (Dipeptidyl peptidase 2) was 0.0018 µM and the IC50 (Dipeptidyl peptidase 4) was 545 µM.
In the case of `CC(=O)NCC[C@H](N)C(=O)N1CCCCC1`, the IC50 (Dipeptidyl peptidase 2) is reported as 0.0015 µM and the IC50 (Dipeptidyl peptidase 4) is reported as 518 µM.
Compound `N#Cc1cccc(CNCC[C@H](N)C(=O)N2CCCCC2)c1` has an IC50 (Dipeptidyl peptidase 2) of 0.0027 µM, an IC50 (Dipeptidyl peptidase 4) of 132 µM and an SI [1] of 50000.
`CC1CCN(C(=O)[C@@H](N)CCNCc2ccc(Cl)cc2)CC1` showed an IC50 (Dipeptidyl peptidase 2) of 0.00055 µM, an IC50 (Dipeptidyl peptidase 4) of over 500 µM and an SI [1] of over 910000.
For `N[C@@H](CCNc1ccccc1)C(=O)N1CCCCC1`, the IC50 (Dipeptidyl peptidase 2) was 0.0015 µM and the IC50 (Dipeptidyl peptidase 4) was 250 µM.
Work on `N#CC1CCCCN1C(=O)[C@@H](N)CCNCc1ccc(Cl)cc1` (stereo partly drawn) yielded an IC50 (Dipeptidyl peptidase 2) of 0.0065 µM, an IC50 (Dipeptidyl peptidase 4) of 13 µM and an SI [1] of 2000.
With `N[C@@H](CCNCc1ccc(Cl)cc1)C(=O)N1CC=CCC1` the IC50 (Dipeptidyl peptidase 2) was 0.0011 µM, the IC50 (Dipeptidyl peptidase 4) was 148 µM and the SI [1] was 130000.
Compound `N[C@@H](CCNCc1ccc(Cl)cc1)C(=O)N1CCC(O)CC1` has an IC50 (Dipeptidyl peptidase 2) of 0.113 µM, an IC50 (Dipeptidyl peptidase 4) of over 1000 µM and an SI [1] of over 9000.
In the case of `N[C@@H](CCNCc1ccc(OCc2ccccc2)cc1)C(=O)N1CCCCC1`, the IC50 (Dipeptidyl peptidase 2) is reported as 0.00041 µM, the IC50 (Dipeptidyl peptidase 4) is reported as 192 µM and the SI [1] is reported as 470000.
For `CN(CC[C@H](N)C(=O)N1CCCCC1)Cc1ccc(Cl)cc1`, the IC50 (Dipeptidyl peptidase 2) was 0.00022 µM, the IC50 (Dipeptidyl peptidase 4) was 196 µM and the SI [1] was 890000.
Compound `N[C@@H](CCNCc1ccc(Cl)cc1)C(=O)N1CCCC(F)C1` (stereo partly drawn) has an IC50 (Dipeptidyl peptidase 2) of 0.00062 µM and an IC50 (Dipeptidyl peptidase 4) of 500 µM.
`N#Cc1ccc(NCC[C@H](N)C(=O)N2CCCCC2)nc1` gave an IC50 (Dipeptidyl peptidase 2) of 0.0046 µM and an IC50 (Dipeptidyl peptidase 4) of 205 µM.
With `N[C@@H](CCNC(=O)c1ccccc1)C(=O)N1CCCCC1` the IC50 (Dipeptidyl peptidase 2) was 0.0074 µM and the IC50 (Dipeptidyl peptidase 4) was 418 µM.
Compound `CN[C@@H](CCNCc1ccc(Cl)cc1)C(=O)N1CCCCC1` has an IC50 (Dipeptidyl peptidase 2) of 0.187 µM, an IC50 (Dipeptidyl peptidase 4) of over 500 µM and an SI [1] of over 2700.
`NCC[C@H](NCc1ccccc1)C(=O)N1CCCCC1` showed an IC50 (Dipeptidyl peptidase 2) of 0.0125 µM, an IC50 (Dipeptidyl peptidase 4) of over 1000 µM and an SI [1] of over 80.
Work on `N[C@@H](CCNCc1ccccc1)C(=O)N1CCCCC1` yielded an IC50 (Dipeptidyl peptidase 2) of 0.00203 µM, an IC50 (Dipeptidyl peptidase 4) of 247 µM and an SI [1] of 120000.
Compound `N[C@@H](CCNCc1cccs1)C(=O)N1CCCCC1` has an IC50 (Dipeptidyl peptidase 2) of 0.0008 µM, an IC50 (Dipeptidyl peptidase 4) of 278 µM and an SI [1] of 350000.
With `CC1CCCN(C(=O)[C@@H](N)CCNCc2ccc(Cl)cc2)C1` (stereo partly drawn) the IC50 (Dipeptidyl peptidase 2) was 0.00113 µM, the IC50 (Dipeptidyl peptidase 4) was over 500 µM and the SI [1] was over 440000.
For `N[C@@H](CCNCc1ccc2ccccc2c1)C(=O)N1CCCCC1`, the IC50 (Dipeptidyl peptidase 2) was 0.0011 µM, the IC50 (Dipeptidyl peptidase 4) was 179 µM and the SI [1] was 160000.
In the case of `COc1ccccc1CNCC[C@H](N)C(=O)N1CCCCC1`, the IC50 (Dipeptidyl peptidase 2) is reported as 0.185 µM, the IC50 (Dipeptidyl peptidase 4) is reported as over 500 µM and the SI [1] is reported as over 270000.
In the case of `N[C@@H](CCNCc1ccc(Cl)cc1)C(=O)N1CCC(F)CC1`, the IC50 (Dipeptidyl peptidase 2) is reported as 0.00039 µM, the IC50 (Dipeptidyl peptidase 4) is reported as 70 µM and the SI [1] is reported as 180000.
Work on `COc1ccc(CNCC[C@H](N)C(=O)N2CCCCC2)cc1` yielded an IC50 (Dipeptidyl peptidase 2) of 0.00066 µM, an IC50 (Dipeptidyl peptidase 4) of 417 µM and an SI [1] of 630000.
`N#CC1CCCCN1C(=O)[C@@H](N)CCNCc1ccccc1` (stereo partly drawn) gave an IC50 (Dipeptidyl peptidase 2) of 0.004 µM, an IC50 (Dipeptidyl peptidase 4) of 68 µM and an SI [1] of 17000.
For `N[C@@H](CCNc1ncccc1[N+](=O)[O-])C(=O)N1CCCCC1`, the IC50 (Dipeptidyl peptidase 2) was 0.0235 µM and the IC50 (Dipeptidyl peptidase 4) was 56 µM.
Compound `COc1cccc(CNCC[C@H](N)C(=O)N2CCCCC2)c1` has an IC50 (Dipeptidyl peptidase 2) of 0.00177 µM, an IC50 (Dipeptidyl peptidase 4) of 250 µM and an SI [1] of 140000.
Compound `N[C@@H](CCNC1CCNCC1)C(=O)N1CCCCC1` has an IC50 (Dipeptidyl peptidase 2) of 0.085 µM, an IC50 (Dipeptidyl peptidase 4) of 64 µM and an SI [1] of 750.
For `NCC[C@H](NC1CCNCC1)C(=O)N1CCCCC1`, the IC50 (Dipeptidyl peptidase 2) was 0.017 µM, the IC50 (Dipeptidyl peptidase 4) was over 1000 µM and the SI [1] was over 59.
For `N[C@@H](CCNCCc1ccccc1)C(=O)N1CCCCC1`, the IC50 (Dipeptidyl peptidase 2) was 0.0009 µM, the IC50 (Dipeptidyl peptidase 4) was 188 µM and the SI [1] was 210000.
For `N[C@@H](CCN(Cc1ccc(Cl)cc1)Cc1ccc(Cl)cc1)C(=O)N1CCCCC1`, the IC50 (Dipeptidyl peptidase 2) was 0.0042 µM, the IC50 (Dipeptidyl peptidase 4) was over 125 µM and the SI [1] was over 30000.
`N[C@@H](CCNCc1ccccc1OCc1ccccc1)C(=O)N1CCCCC1` showed an IC50 (Dipeptidyl peptidase 2) of 0.00039 µM, an IC50 (Dipeptidyl peptidase 4) of over 500 µM and an SI [1] of over 1.3e+06.
`N[C@@H](CCN(Cc1ccccc1)Cc1ccccc1)C(=O)N1CCCCC1` showed an IC50 (Dipeptidyl peptidase 2) of 0.0006 µM, an IC50 (Dipeptidyl peptidase 4) of 266 µM and an SI [1] of 440000.
Work on `N[C@@H](CCNCc1ccc(Cl)cc1)C(=O)N1CCCC(O)C1` (stereo partly drawn) yielded an IC50 (Dipeptidyl peptidase 2) of 0.0547 µM, an IC50 (Dipeptidyl peptidase 4) of over 1000 µM and an SI [1] of over 20000.
`NCC[C@H](N=C(N)N)C(=O)N1CCCCC1` showed an IC50 (Dipeptidyl peptidase 2) of 0.0074 µM, an IC50 (Dipeptidyl peptidase 4) of over 1000 µM and an SI [1] of over 140.
`N[C@@H](CCNC1CCCCC1)C(=O)N1CCCCC1` showed an IC50 (Dipeptidyl peptidase 2) of 0.0186 µM, an IC50 (Dipeptidyl peptidase 4) of over 1000 µM and an SI [1] of over 50000.
For `N[C@@H](CCNCc1ccccc1Cl)C(=O)N1CCCCC1`, the IC50 (Dipeptidyl peptidase 2) was 0.00023 µM, the IC50 (Dipeptidyl peptidase 4) was 345 µM and the SI [1] was 1.5e+06.
